# Measurements: patent US12077503B2, “Substituted cyclic amides and their use as herbicides” (FMC CORPORATION, priority 2015, dated 2024)
# What was measured:
# Format in all cases: in vivo
# [1] = tested on: redroot pigweed (Amaranthus retroflexus); test: Test G Post-Emergence Protocol; settings: Amaranthus retroflexus, post-emergence, 312 h; for pest or weed control at 15.625 g/ha: 15.625 g ai/ha, evaluated after 13 days (100=total damage to plant; 0=no damage to plant), read-out: Pigweed, Redroot damage rating; for pest or weed control at 62.5 g/ha: 62.5 g ai/ha, read-out: Pigweed, Redroot damage rating (100=total damage to plant; 0=no damage to plant); for pest or weed control at 62.5 g/ha / pest or weed control at 250 g/ha: evaluated after 13 days; for pest or weed control at 250 g/ha: 250 g ai/ha, read-out: damage to plant, Pigweed, Redroot (100=total damage to plant; 0=no damage to plant)
# Procedure, shortened: (§1)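 Pot-grown seedlings, 8 days old, raised in a glasshouse at 24/16 °C day/night with 14 h light and 65% humidity, were sprayed post-emergence with test compound in acetone/water (50:50) plus 0.5% Tween 20 at 15.625, 62.5 or 250 g/ha. Damage was scored visually 13 days later on a 0–100 scale (100 = total damage).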
# [2] = tested on: corn (Zea mays); test: Test G Post-Emergence Protocol; settings: Zea mays, post-emergence, 312 h; for plant injury at 15.625 g/ha: 15.625 g ai/ha, evaluated after 13 days (100=total damage to plant; 0=no damage to plant), read-out: Corn damage rating; for plant injury at 62.5 g/ha: 62.5 g ai/ha, read-out: Corn damage rating (100=total damage to plant; 0=no damage to plant); for plant injury at 62.5 g/ha / plant injury at 250 g/ha: evaluated after 13 days; for plant injury at 250 g/ha: 250 g ai/ha, read-out: damage to plant, Corn (100=total damage to plant; 0=no damage to plant)
# Procedure, shortened: as §1
# [3] = tested on: ivy-leaved morning glory (Ipomoea hederacea); test: Test G Post-Emergence Protocol; settings: Ipomoea, post-emergence, 312 h; for pest or weed control at 15.625 g/ha: 15.625 g ai/ha, evaluated after 13 days (100=total damage to plant; 0=no damage to plant), read-out: Morningglory, Ivy-leaved damage rating; for pest or weed control at 62.5 g/ha: 62.5 g ai/ha, read-out: Morningglory, Ivy-leaved damage rating (100=total damage to plant; 0=no damage to plant); for pest or weed control at 62.5 g/ha / pest or weed control at 250 g/ha: evaluated after 13 days; for pest or weed control at 250 g/ha: 250 g ai/ha, read-out: damage to plant, Morningglory, Ivy-leaved (100=total damage to plant; 0=no damage to plant)
# Procedure, shortened: as §1
# [4] = tested on: giant foxtail (Setaria faberi); test: Test G Post-Emergence Protocol; settings: Setaria faberi, post-emergence, 312 h; for pest or weed control at 15.625 g/ha: 15.625 g ai/ha, evaluated after 13 days (100=total damage to plant; 0=no damage to plant), read-out: Foxtail, Giant damage rating; for pest or weed control at 62.5 g/ha: 62.5 g ai/ha, read-out: Foxtail, Giant damage rating (100=total damage to plant; 0=no damage to plant); for pest or weed control at 62.5 g/ha / pest or weed control at 250 g/ha: evaluated after 13 days; for pest or weed control at 250 g/ha: 250 g ai/ha, read-out: damage to plant, Foxtail, Giant (100=total damage to plant; 0=no damage to plant)
# Procedure, shortened: as §1
# [5] = tested on: barnyardgrass (Echinochloa crus-galli); test: Test G Post-Emergence Protocol; settings: Echinochloa crus-galli, post-emergence, 312 h; for pest or weed control at 15.625 g/ha: 15.625 g ai/ha, evaluated after 13 days (100=total damage to plant; 0=no damage to plant), read-out: Barnyardgrass damage rating; for pest or weed control at 62.5 g/ha: 62.5 g ai/ha, read-out: Barnyardgrass damage rating (100=total damage to plant; 0=no damage to plant); for pest or weed control at 62.5 g/ha / pest or weed control at 250 g/ha: evaluated after 13 days; for pest or weed control at 250 g/ha: 250 g ai/ha, read-out: damage to plant, Barnyardgrass (100=total damage to plant; 0=no damage to plant)
# Procedure, shortened: as §1
# [6] = tested on: velvetleaf (Abutilon theophrasti); test: Test G Post-Emergence Protocol; settings: Abutilon theophrasti, post-emergence, 312 h; for pest or weed control at 15.625 g/ha: 15.625 g ai/ha, evaluated after 13 days (100=total damage to plant; 0=no damage to plant), read-out: Velvetleaf damage rating; for pest or weed control at 62.5 g/ha: 62.5 g ai/ha, read-out: Velvetleaf damage rating (100=total damage to plant; 0=no damage to plant); for pest or weed control at 62.5 g/ha / pest or weed control at 250 g/ha: evaluated after 13 days; for pest or weed control at 250 g/ha: 250 g ai/ha, read-out: damage to plant, Velvetleaf (100=total damage to plant; 0=no damage to plant)
# Procedure, shortened: as §1
# [7] = tested on: redroot pigweed (Amaranthus retroflexus); test: Test G Pre-Emergence Protocol; settings: Amaranthus retroflexus, pre-emergence, 312 h, evaluated after 13 days; for pest or weed control at 15.625 g/ha: 15.625 g ai/ha; for pest or weed control at 15.625 g/ha / pest or weed control at 250 g/ha: read-out: Pigweed, Redroot damage rating (100=total damage to plant; 0=no damage to plant); for pest or weed control at 62.5 g/ha: 62.5 g ai/ha, 100=total damage to plant, 0=no damage to plant, read-out: plant damage rating, Pigweed, Redroot; for pest or weed control at 250 g/ha: 250 g ai/ha
# Procedure, shortened: (§2)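 Test compound in 0.5% Tween 20 acetone/water (50:50) was applied at three rates (15.625, 62.5, 250 g/ha) to soil sown one day earlier. After 13 days plants were scored for injury, where 0 means unaffected and 100 means completely damaged.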
# [8] = tested on: corn (Zea mays); test: Test G Pre-Emergence Protocol; settings: Zea mays, pre-emergence, 312 h, evaluated after 13 days; for plant injury at 15.625 g/ha: 15.625 g ai/ha; for plant injury at 15.625 g/ha / plant injury at 250 g/ha: read-out: Corn damage rating (100=total damage to plant; 0=no damage to plant); for plant injury at 62.5 g/ha: 62.5 g ai/ha, 100=total damage to plant, 0=no damage to plant, read-out: plant damage rating, Corn; for plant injury at 250 g/ha: 250 g ai/ha
# Procedure, shortened: as §2
# [9] = tested on: ivy-leaved morning glory (Ipomoea hederacea); test: Test G Pre-Emergence Protocol; settings: Ipomoea, pre-emergence, 312 h, evaluated after 13 days; for pest or weed control at 15.625 g/ha: 15.625 g ai/ha, read-out: Morning-glory, Ivy-leaved damage rating (100=total damage to plant; 0=no damage to plant); for pest or weed control at 62.5 g/ha: 62.5 g ai/ha, 100=total damage to plant, 0=no damage to plant, read-out: plant damage rating, Morningglory, Ivy-leaved; for pest or weed control at 250 g/ha: 250 g ai/ha, read-out: Morningglory, Ivy-leaved damage rating (100=total damage to plant; 0=no damage to plant)
# Procedure, shortened: as §2
# [10] = tested on: giant foxtail (Setaria faberi); test: Test G Pre-Emergence Protocol; settings: Setaria faberi, pre-emergence, 312 h, evaluated after 13 days; for pest or weed control at 15.625 g/ha: 15.625 g ai/ha; for pest or weed control at 15.625 g/ha / pest or weed control at 250 g/ha: read-out: Foxtail, Giant damage rating (100=total damage to plant; 0=no damage to plant); for pest or weed control at 62.5 g/ha: 62.5 g ai/ha, 100=total damage to plant, 0=no damage to plant, read-out: plant damage rating, Foxtail, Giant; for pest or weed control at 250 g/ha: 250 g ai/ha
# Procedure, shortened: as §2
# [11] = tested on: barnyardgrass (Echinochloa crus-galli); test: Test G Pre-Emergence Protocol; settings: Echinochloa crus-galli, pre-emergence, 312 h, evaluated after 13 days; for pest or weed control at 15.625 g/ha: 15.625 g ai/ha, read-out: Barnyard grass damage rating (100=total damage to plant; 0=no damage to plant); for pest or weed control at 62.5 g/ha: 62.5 g ai/ha, 100=total damage to plant, 0=no damage to plant, read-out: plant damage rating, Barnyardgrass; for pest or weed control at 250 g/ha: 250 g ai/ha, read-out: Barnyardgrass damage rating (100=total damage to plant; 0=no damage to plant)
# Procedure, shortened: as §2
# [12] = tested on: velvetleaf (Abutilon theophrasti); test: Test G Pre-Emergence Protocol; settings: Abutilon theophrasti, pre-emergence, 312 h, evaluated after 13 days; for pest or weed control at 15.625 g/ha: 15.625 g ai/ha; for pest or weed control at 15.625 g/ha / pest or weed control at 250 g/ha: read-out: Velvetleaf damage rating (100=total damage to plant; 0=no damage to plant); for pest or weed control at 62.5 g/ha: 62.5 g ai/ha, 100=total damage to plant, 0=no damage to plant, read-out: plant damage rating, Velvetleaf; for pest or weed control at 250 g/ha: 250 g ai/ha
# Procedure, shortened: as §2
SMILES,pest or weed control at 15.625 g/ha [1] [%],pest or weed control at 62.5 g/ha [1] [%],pest or weed control at 250 g/ha [1] [%],plant injury at 15.625 g/ha [2] [%],plant injury at 62.5 g/ha [2] [%],plant injury at 250 g/ha [2] [%],pest or weed control at 15.625 g/ha [3] [%],pest or weed control at 62.5 g/ha [3] [%],pest or weed control at 250 g/ha [3] [%],pest or weed control at 15.625 g/ha [4] [%],pest or weed control at 62.5 g/ha [4] [%],pest or weed control at 250 g/ha [4] [%],pest or weed control at 15.625 g/ha [5] [%],pest or weed control at 62.5 g/ha [5] [%],pest or weed control at 250 g/ha [5] [%],pest or weed control at 15.625 g/ha [6] [%],pest or weed control at 62.5 g/ha [6] [%],pest or weed control at 250 g/ha [6] [%],pest or weed control at 15.625 g/ha [7] [%],pest or weed control at 62.5 g/ha [7] [%],further results
Cc1ccc(NC(=O)[C@H]2C(=O)N(C)C[C@@H]2c2ccc(C(F)(F)F)cc2)c(C)c1 (racemic) [Compound 1410],0,0,10,0,0,10,0,0,20,0,0,50,0,0,20,0,0,0,0,20,pest or weed control at 250 g/ha [7]: 10%; plant injury at 15.625 g/ha [8]: 0%; plant injury at 62.5 g/ha [8]: 0%; plant injury at 250 g/ha [8]: 0%; pest or weed control at 15.625 g/ha [9]: 0%; pest or weed control at 62.5 g/ha [9]: 0%; pest or weed control at 250 g/ha [9]: 10%; pest or weed control at 15.625 g/ha [10]: 0%; pest or weed control at 62.5 g/ha [10]: 0%; pest or weed control at 250 g/ha [10]: 80%; pest or weed control at 15.625 g/ha [11]: 0%; pest or weed control at 62.5 g/ha [11]: 0%; pest or weed control at 250 g/ha [11]: 20%; pest or weed control at 15.625 g/ha [12]: 0%; pest or weed control at 62.5 g/ha [12]: 10%; pest or weed control at 250 g/ha [12]: 20%
CSc1nccc(NC(=O)[C@@H]2C(=O)N(C)C[C@H]2c2ccc(C(F)(F)F)cc2)n1 (racemic) [Compound 1516],0,0,0,0,0,0,0,0,0,0,0,0,0,0,0,0,0,0,0,0,pest or weed control at 250 g/ha [7]: 0%; plant injury at 15.625 g/ha [8]: 0%; plant injury at 62.5 g/ha [8]: 0%; plant injury at 250 g/ha [8]: 0%; pest or weed control at 15.625 g/ha [9]: 0%; pest or weed control at 62.5 g/ha [9]: 0%; pest or weed control at 250 g/ha [9]: 0%; pest or weed control at 15.625 g/ha [10]: 0%; pest or weed control at 62.5 g/ha [10]: 0%; pest or weed control at 250 g/ha [10]: 0%; pest or weed control at 15.625 g/ha [11]: 0%; pest or weed control at 62.5 g/ha [11]: 0%; pest or weed control at 250 g/ha [11]: 0%; pest or weed control at 15.625 g/ha [12]: 0%; pest or weed control at 62.5 g/ha [12]: 0%; pest or weed control at 250 g/ha [12]: 0%
Cc1nc(NC(=O)[C@@H]2C(=O)N(C)C[C@H]2c2ccc(C(F)(F)F)cc2)ccc1F (racemic) [Compound 1613],0,50,60,0,0,0,0,0,0,20,70,80,0,20,60,0,20,30,0,0,pest or weed control at 250 g/ha [7]: 10%; plant injury at 15.625 g/ha [8]: 0%; plant injury at 62.5 g/ha [8]: 0%; plant injury at 250 g/ha [8]: 0%; pest or weed control at 15.625 g/ha [9]: 0%; pest or weed control at 62.5 g/ha [9]: 0%; pest or weed control at 250 g/ha [9]: 0%; pest or weed control at 15.625 g/ha [10]: 0%; pest or weed control at 62.5 g/ha [10]: 50%; pest or weed control at 250 g/ha [10]: 90%; pest or weed control at 15.625 g/ha [11]: 0%; pest or weed control at 62.5 g/ha [11]: 0%; pest or weed control at 250 g/ha [11]: 70%; pest or weed control at 15.625 g/ha [12]: 0%; pest or weed control at 62.5 g/ha [12]: 0%; pest or weed control at 250 g/ha [12]: 10%
